Peptide text beside a SMILES is read from it. * marks the point of attachment. X72 = O=C1C=CC(=O)N1c1ccccc1CCCCCCCCCCC(=O)*; X66 = O=C1C=CC(=O)N1c1cccc(CCCCCCCC(=O)*)c1; X75 = O=C1C=CC(=O)N1c1cccc(CC(=O)*)c1
Columns and labels:
adjuvant arthritis = test: Rat adjuvant arthritis (AA) animal model; assay type: in vivo, SD rats; conditions: 4.0 mg/kg; for Clinical score: intravenous in the tail once every five days from day 10, four paws scored 0-4, max 16, mean±SD; for Joint swelling degree / Left and right paw swelling degree: intravenous in the tail once every five days from day 10, mean±SD
[1] = Half-lives and pharmacokinetic parameters of polypeptides vs HM-1; conditions: in vivo; for half-life: T1/2β (half-life)
[2] = tested on: choroidal neovascularization; test: Choroidal neovascularization in rats (laser photocoagulation, FFA); assay type: in vivo; conditions: BN rats
Method in brief: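 Male BN rats aged 6-8 weeks were given 8 krypton-laser spots around the optic disc (647.1 nm, 350 mW, 50 μm, 0.05 s). Once the model was confirmed, groups of 5 got daily intravitreal compound at 0.05 μM or saline for 1 week. FFA followed at 3, 7, 14 and 28 days after dosing.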

splenic lymphocytes = test: Proliferation of splenic lymphocytes in mice (ConA, MTT); assay type: cell-based; conditions: ConA-stimulated mouse splenic lymphocytes, 48 h
Method in brief: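 Proliferation read as OD 570 nm after 4 h MTT and DMSO solubilisation, five parallel wells. Before that, ConA-stimulated splenic lymphocytes from mice, 5×10^6 cells/mL in 10% calf serum RPMI 1640, were cultured 48 h at 37° C. with different peptide concentrations; controls were blank, ConA alone and dexamethasone.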

[3] = tested on: carrageenan-induced toe swelling; test: Carrageenan-induced toe swelling in rats; assay type: in vivo; conditions: SD rats; for Swelling degree 1 h: 1 h after carrageenan; for Swelling degree 3 h: 3 h after carrageenan; for Swelling degree 5 h: 5 h after carrageenan; for Swelling degree 7 h: 7 h after carrageenan
Method in brief: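 Paw swelling, in mL, is the post-inflammation minus pre-inflammation volume of the right hind foot, read as overflow liquid when immersed to a pen-marked joint. Treatment was daily injection over 3 d; model group received saline of the same volume.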

[4] = tested on: collagen-induced arthritis; test: Mouse collagen-induced arthritis (CIA) animal model; assay type: in vivo; conditions: DBA/1 mice CIA model, dose 4.0 mg/kg, subcutaneous from day 30, n=10; for Clinical score: highest score 16
HUVECs = test: Transwell migration inhibition on HUVECs; assay type: cell-based, human; conditions: for Inhibition rate (%): HUVEC migration vs blank control; for Cell migration number (Mean ± SD): HUVECs, transwell, 24 h
[5] = day 3 after administration, total light spot number was 297, 0.05 μM in the vitreous chamber once a day for 1 week
[6] = day 7 after administration, total light spot number was 186, 0.05 μM in the vitreous chamber once a day for 1 week
[7] = day 14 after administration, total light spot number was 137, 0.05 μM in the vitreous chamber once a day for 1 week
[8] = day 28 after administration, total light spot number was 69, 0.05 μM in the vitreous chamber once a day for 1 week

C[C@H](NC(=O)CNC(=O)[C@H](CCCNC(=N)N)NC(=O)Cc1cccc(N2C(=O)C=CC2=O)c1)C(=O)N[C@@H](CC(=O)O)C(=O)N[C@@H](CCCNC(=N)N)C(=O)N[C@@H](C)C(=O)NCC(=O)NCC(=O)NCC(=O)NCC(=O)N[C@@H](CCCNC(=N)N)C(=O)NCC(=O)N[C@@H](CC(=O)O)C(=O)O [X25] (X75-RGADRAGGGGRGD-OH)
Clinical score (adjuvant arthritis): 5.72 ± 1.11 | Joint swelling degree (adjuvant arthritis): 0.71 ± 0.16 mm | Left and right paw swelling degree (adjuvant arthritis): 3.76 ± 0.09 mm | AUC(0-inf) [1]: 24600 ± 7530 ng·h/mL | MRT inf [1]: 44.1 ± 10.7 h | clearance [1]: 0.677 mL/min/kg | half-life [1]: 30.6 ± 0.32 h | CNV Incidence (%) [2, 5]: 51.85% | Leakage Light spot number [2, 5]: 154 | CNV Incidence (%) [2, 6]: 47.31% | Leakage Light spot number [2, 6]: 88 | CNV Incidence (%) [2, 7]: 43.07% | Leakage Light spot number [2, 7]: 59 | CNV Incidence (%) [2, 8]: 44.93% | Leakage Light spot number [2, 8]: 31 | A570 nm/A630 nm (splenic lymphocytes; polypeptide dose 0.05 μM): 0.5838 ± 0.0861 | Inhibition rate (%) (splenic lymphocytes; polypeptide dose 0.05 μM): 13.56% | A570 nm/A630 nm (splenic lymphocytes; polypeptide dose 0.1 μM): 0.5673 ± 0.0906 | Inhibition rate (%) (splenic lymphocytes; polypeptide dose 0.1 μM): 16.01% | A570 nm/A630 nm (splenic lymphocytes; polypeptide dose 0.2 μM): 0.4576 ± 0.1221 | Inhibition rate (%) (splenic lymphocytes; polypeptide dose 0.2 μM): 32.25% | Swelling degree 1 h ([3]; 2.0 mg/kg once a day for 3 d): 0.29 ± 0.17 mg | Swelling degree 3 h ([3]; 2.0 mg/kg once a day for 3 d): 0.38 ± 0.12 mg | Swelling degree 5 h ([3]; 2.0 mg/kg once a day for 3 d): 0.46 ± 0.18 mg | Swelling degree 7 h ([3]; 2.0 mg/kg once a day for 3 d): 0.34 ± 0.13 mg | Swelling degree 1 h ([3]; 4.0 mg/kg once a day for 3 d): 0.27 ± 0.15 mg | Swelling degree 3 h ([3]; 4.0 mg/kg once a day for 3 d): 0.36 ± 0.19 mg | Swelling degree 5 h ([3]; 4.0 mg/kg once a day for 3 d): 0.44 ± 0.18 mg | Swelling degree 7 h ([3]; 4.0 mg/kg once a day for 3 d): 0.33 ± 0.12 mg | Joint swelling degree (mm) [4]: 0.71 ± 0.18 mm | Left and right paw swelling degree (mm) [4]: 0.74 ± 0.14 mm | Clinical score [4]: 9.21 ± 1.33 | Inhibition rate (%) (HUVECs; dose 0.05 μM): 48.06% | Inhibition rate (%) (HUVECs; dose 0.1 μM): 52.24% | Inhibition rate (%) (HUVECs; dose 0.2 μM): 58.00% | Cell migration number (Mean ± SD) (HUVECs; dose 0.05 μM): 556.73 ± 40.91 | Cell migration number (Mean ± SD) (HUVECs; dose 0.1 μM): 511.9 ± 68.58 | Cell migration number (Mean ± SD) (HUVECs; dose 0.2 μM): 450.13 ± 52.7

C[C@H](NC(=O)CNC(=O)[C@H](CCCNC(=N)N)NC(=O)CCCCCCCCCCc1ccccc1N1C(=O)C=CC1=O)C(=O)N[C@@H](CC(=O)O)C(=O)N[C@@H](CCCNC(=N)N)C(=O)N[C@@H](C)C(=O)NCC(=O)NCC(=O)NCC(=O)NCC(=O)N[C@@H](CCCNC(=N)N)C(=O)NCC(=O)N[C@@H](CC(=O)O)C(=O)O [X22] (X72-RGADRAGGGGRGD-OH)
Clinical score (adjuvant arthritis): 5.67 ± 1.12 | Joint swelling degree (adjuvant arthritis): 0.83 ± 0.14 mm | Left and right paw swelling degree (adjuvant arthritis): 3.92 ± 0.18 mm | AUC(0-inf) [1]: 28200 ± 7980 ng·h/mL | MRT inf [1]: 50.5 ± 13.6 h | clearance [1]: 0.59 mL/min/kg | half-life [1]: 35.03 ± 0.27 h | CNV Incidence (%) [2, 5]: 53.87% | Leakage Light spot number [2, 5]: 160 | CNV Incidence (%) [2, 6]: 47.85% | Leakage Light spot number [2, 6]: 89 | CNV Incidence (%) [2, 7]: 43.80% | Leakage Light spot number [2, 7]: 60 | CNV Incidence (%) [2, 8]: 37.68% | Leakage Light spot number [2, 8]: 26 | A570 nm/A630 nm (splenic lymphocytes; polypeptide dose 0.05 μM): 0.5694 ± 0.0561 | Inhibition rate (%) (splenic lymphocytes; polypeptide dose 0.05 μM): 15.69% | A570 nm/A630 nm (splenic lymphocytes; polypeptide dose 0.1 μM): 0.4603 ± 0.0873 | Inhibition rate (%) (splenic lymphocytes; polypeptide dose 0.1 μM): 31.85% | A570 nm/A630 nm (splenic lymphocytes; polypeptide dose 0.2 μM): 0.4521 ± 0.1194 | Inhibition rate (%) (splenic lymphocytes; polypeptide dose 0.2 μM): 33.06% | Swelling degree 1 h ([3]; 2.0 mg/kg once a day for 3 d): 0.24 ± 0.13 mg | Swelling degree 3 h ([3]; 2.0 mg/kg once a day for 3 d): 0.31 ± 0.15 mg | Swelling degree 5 h ([3]; 2.0 mg/kg once a day for 3 d): 0.42 ± 0.14 mg | Swelling degree 7 h ([3]; 2.0 mg/kg once a day for 3 d): 0.38 ± 0.18 mg | Swelling degree 1 h ([3]; 4.0 mg/kg once a day for 3 d): 0.23 ± 0.11 mg | Swelling degree 3 h ([3]; 4.0 mg/kg once a day for 3 d): 0.31 ± 0.16 mg | Swelling degree 5 h ([3]; 4.0 mg/kg once a day for 3 d): 0.36 ± 0.13 mg | Swelling degree 7 h ([3]; 4.0 mg/kg once a day for 3 d): 0.37 ± 0.13 mg | Joint swelling degree (mm) [4]: 0.75 ± 0.14 mm | Left and right paw swelling degree (mm) [4]: 0.83 ± 0.13 mm | Clinical score [4]: 8.67 ± 1.32 | Inhibition rate (%) (HUVECs; dose 0.05 μM): 48.22% | Inhibition rate (%) (HUVECs; dose 0.1 μM): 55.21% | Inhibition rate (%) (HUVECs; dose 0.2 μM): 57.65% | Cell migration number (Mean ± SD) (HUVECs; dose 0.05 μM): 555.03 ± 66.81 | Cell migration number (Mean ± SD) (HUVECs; dose 0.1 μM): 480.13 ± 67.49 | Cell migration number (Mean ± SD) (HUVECs; dose 0.2 μM): 453.97 ± 57.23

C[C@H](NC(=O)CNC(=O)[C@H](CCCNC(=N)N)NC(=O)CCCCCCCc1cccc(N2C(=O)C=CC2=O)c1)C(=O)N[C@@H](CC(=O)O)C(=O)N[C@@H](CCCNC(=N)N)C(=O)N[C@@H](C)C(=O)NCC(=O)NCC(=O)NCC(=O)NCC(=O)N[C@@H](CCCNC(=N)N)C(=O)NCC(=O)N[C@@H](CC(=O)O)C(=O)O [X31] (X66-RGADRAGGGGRGD-OH)
Clinical score (adjuvant arthritis): 5.74 ± 1.12 | Joint swelling degree (adjuvant arthritis): 0.84 ± 0.12 mm | Left and right paw swelling degree (adjuvant arthritis): 3.72 ± 0.98 mm | AUC(0-inf) [1]: 28600 ± 6960 ng·h/mL | MRT inf [1]: 51.3 ± 11.3 h | clearance [1]: 0.582 mL/min/kg | half-life [1]: 35.58 ± 0.31 h | CNV Incidence (%) [2, 5]: 53.54% | Leakage Light spot number [2, 5]: 159 | CNV Incidence (%) [2, 6]: 46.77% | Leakage Light spot number [2, 6]: 87 | CNV Incidence (%) [2, 7]: 41.61% | Leakage Light spot number [2, 7]: 57 | CNV Incidence (%) [2, 8]: 44.93% | Leakage Light spot number [2, 8]: 31 | A570 nm/A630 nm (splenic lymphocytes; polypeptide dose 0.05 μM): 0.6142 ± 0.0512 | Inhibition rate (%) (splenic lymphocytes; polypeptide dose 0.05 μM): 9.06% | A570 nm/A630 nm (splenic lymphocytes; polypeptide dose 0.1 μM): 0.6134 ± 0.1148 | Inhibition rate (%) (splenic lymphocytes; polypeptide dose 0.1 μM): 9.18% | A570 nm/A630 nm (splenic lymphocytes; polypeptide dose 0.2 μM): 0.5450 ± 0.0838 | Inhibition rate (%) (splenic lymphocytes; polypeptide dose 0.2 μM): 19.31% | Swelling degree 1 h ([3]; 2.0 mg/kg once a day for 3 d): 0.23 ± 0.18 mg | Swelling degree 3 h ([3]; 2.0 mg/kg once a day for 3 d): 0.37 ± 0.12 mg | Swelling degree 5 h ([3]; 2.0 mg/kg once a day for 3 d): 0.38 ± 0.16 mg | Swelling degree 7 h ([3]; 2.0 mg/kg once a day for 3 d): 0.33 ± 0.11 mg | Swelling degree 1 h ([3]; 4.0 mg/kg once a day for 3 d): 0.22 ± 0.12 mg | Swelling degree 3 h ([3]; 4.0 mg/kg once a day for 3 d): 0.36 ± 0.16 mg | Swelling degree 5 h ([3]; 4.0 mg/kg once a day for 3 d): 0.38 ± 0.15 mg | Swelling degree 7 h ([3]; 4.0 mg/kg once a day for 3 d): 0.35 ± 0.14 mg | Joint swelling degree (mm) [4]: 0.78 ± 0.15 mm | Left and right paw swelling degree (mm) [4]: 0.77 ± 0.15 mm | Clinical score [4]: 8.75 ± 1.38 | Inhibition rate (%) (HUVECs; dose 0.05 μM): 40.18% | Inhibition rate (%) (HUVECs; dose 0.1 μM): 46.67% | Inhibition rate (%) (HUVECs; dose 0.2 μM): 55.21% | Cell migration number (Mean ± SD) (HUVECs; dose 0.05 μM): 641.17 ± 61.85 | Cell migration number (Mean ± SD) (HUVECs; dose 0.1 μM): 571.62 ± 42.83 | Cell migration number (Mean ± SD) (HUVECs; dose 0.2 μM): 480.05 ± 67.72
